Tests used:
[1] = target: T1, MCR-C (C-terminal domain of malonyl-CoA reductase) (Chloroflexus aurantiacus, UniProt A9WIU3); assay: NADPH absorbance at […] nm, product inhibition; format: biochemical
[2] = target: T1, MCR-C (C-terminal domain of malonyl-CoA reductase); assay: NADPH absorbance at […] nm, dead-end inhibition; format: biochemical

SMILES | Ki [1] [µM] | Ki [2] [µM]
CC(C)(COP(=O)(O)OP(=O)(O)OC[C@H]1O[C@@H](n2cnc3c(N)ncnc32)[C@H](O)[C@@H]1OP(=O)(O)O)[C@@H](O)C(=O)NCCC(=O)NCCS [CoA] | 238 ± 14 | –
NC(=O)c1ccc[n+]([C@@H]2O[C@H](COP(=O)(O)OP(=O)(O)OC[C@H]3O[C@@H](n4cnc5c(N)ncnc54)[C@H](OP(=O)(O)O)[C@@H]3O)[C@@H](O)[C@H]2O)c1 [NADP^+] | 104 ± 15 | –
O=CC(=O)O [glyoxylic acid] | – | 6 ± 0.8

Reference: article PMC12786355 (Biochimica et biophysica acta. Proteins and proteomics, 2024)
